Data published in patent publication US12024503B2, “Benzethers and anilines of pyrazolyl-amino-pyrimidinyl derivatives, and compositions and methods thereof” (LYNK PHARMACEUTICALS CO. LTD., priority 2019, dated 2024).
Where two headings read alike, the source gives them in different places.

Assays:
Assay type in all cases: biochemical
[1] = molecular target: T1, JAK2V617F (Homo sapiens, UniProt O60674, V617F); experiment: JAK2V617F microfluidic kinase assay (Caliper EZ Reader II, FAM labeled peptide substrate); settings: (2.5 nM), 1 mM ATP
T1 construct: purchased Carna Biosciences
Protocol: (§1) Compounds were tested against JAK1, JAK2, JAK2V617F and TYK2.
(§2) Assay Formats: JAK activity was determined in the reaction buffer 50 mM HEPES, 0.01% Brij35, 10 mMMgCl2, 2 mMDTT by a microfluidic assay. The phosphorylation of a FAM labeled peptide substrate was monitored in the Caliper EZ Reader II (Perkin Elmer). The assay condition for each batch of enzyme (Carna Biosciences) was optimized to obtain 10% conversion rate of peptide substrate.
(§3) The test compounds were dissolved in DMSO to a stock concentration of 10 mM. 3-fold serially diluted compounds with top concentration of 5 μM were pre-incubated with JAK1, JAK2, JAK2V617F or TYK2 for 10 min at ambient temperature. The final DMSO concentration of assay mixture was 1%. FAM labeled peptide substrate (final concentration […]) and ATP (1 mM concentration) were sequentially added to initiate the kinase reaction at 28° C. The reaction was stopped by adding 50 mMEDTA. The reaction time for JAK1, JAK2, JAK2V617F and TYK2 was 120 min, 20 min, 30 min and 10 min, respectively.
(§4) The well in the test plate without enzyme was defined as 100% inhibition. And the well without compound but with equivalent DMSO was defined as no inhibition. The percent inhibition was calculated by the following formula. % Inhibition=(Conversionmax−Conversionsample)/(Conversionmax−Conversionmin)*100Conversionmax means the conversion rate in the positive well without addition of compound Conversionmin means the conversion rate in the well without addition of enzyme Conversionsample means the conversion rate of test compounds
(§5) The dose-response (percent inhibition) curve was plotted and IC50 values were determined by GraphPad software.

[2] = molecular target: T2, TYK2 (Homo sapiens, UniProt P29597); experiment: TYK2 microfluidic kinase assay (Caliper EZ Reader II, FAM labeled peptide substrate); settings: (2.5 nM), 1 mM ATP
T2 construct: purchased Carna Biosciences
Protocol: as §1, §2, §3, §4, §5

[3] = molecular target: T3, JAK1 (Homo sapiens, UniProt P23458); experiment: JAK1 microfluidic kinase assay (Caliper EZ Reader II, FAM labeled peptide substrate); settings: (5 nM), 1 mM ATP
T3 construct: purchased Carna Biosciences
Protocol: as §1, §2, §3, §4, §5

[4] = molecular target: T4, JAK2 (Homo sapiens, UniProt O60674); experiment: JAK2 microfluidic kinase assay (Caliper EZ Reader II, FAM labeled peptide substrate); settings: (0.25 nM), 1 mM ATP
T4 construct: purchased Carna Biosciences
Protocol: as §1, §2, §3, §4, §5

[5] = Table 2, read-out: IC50 J2V617F (2.5 nM) (1 mM ATP)
[6] = Table 2, read-out: IC50 TYK2 (2.5 nM) (1 mM ATP)
[7] = Table 2, read-out: IC50 JAK1 (5 nM) (1 mM ATP)
[8] = Table 2, read-out: IC50 JAK2 (0.25 nM) (1 mM ATP)

T2 sequence (P29597 whole entry): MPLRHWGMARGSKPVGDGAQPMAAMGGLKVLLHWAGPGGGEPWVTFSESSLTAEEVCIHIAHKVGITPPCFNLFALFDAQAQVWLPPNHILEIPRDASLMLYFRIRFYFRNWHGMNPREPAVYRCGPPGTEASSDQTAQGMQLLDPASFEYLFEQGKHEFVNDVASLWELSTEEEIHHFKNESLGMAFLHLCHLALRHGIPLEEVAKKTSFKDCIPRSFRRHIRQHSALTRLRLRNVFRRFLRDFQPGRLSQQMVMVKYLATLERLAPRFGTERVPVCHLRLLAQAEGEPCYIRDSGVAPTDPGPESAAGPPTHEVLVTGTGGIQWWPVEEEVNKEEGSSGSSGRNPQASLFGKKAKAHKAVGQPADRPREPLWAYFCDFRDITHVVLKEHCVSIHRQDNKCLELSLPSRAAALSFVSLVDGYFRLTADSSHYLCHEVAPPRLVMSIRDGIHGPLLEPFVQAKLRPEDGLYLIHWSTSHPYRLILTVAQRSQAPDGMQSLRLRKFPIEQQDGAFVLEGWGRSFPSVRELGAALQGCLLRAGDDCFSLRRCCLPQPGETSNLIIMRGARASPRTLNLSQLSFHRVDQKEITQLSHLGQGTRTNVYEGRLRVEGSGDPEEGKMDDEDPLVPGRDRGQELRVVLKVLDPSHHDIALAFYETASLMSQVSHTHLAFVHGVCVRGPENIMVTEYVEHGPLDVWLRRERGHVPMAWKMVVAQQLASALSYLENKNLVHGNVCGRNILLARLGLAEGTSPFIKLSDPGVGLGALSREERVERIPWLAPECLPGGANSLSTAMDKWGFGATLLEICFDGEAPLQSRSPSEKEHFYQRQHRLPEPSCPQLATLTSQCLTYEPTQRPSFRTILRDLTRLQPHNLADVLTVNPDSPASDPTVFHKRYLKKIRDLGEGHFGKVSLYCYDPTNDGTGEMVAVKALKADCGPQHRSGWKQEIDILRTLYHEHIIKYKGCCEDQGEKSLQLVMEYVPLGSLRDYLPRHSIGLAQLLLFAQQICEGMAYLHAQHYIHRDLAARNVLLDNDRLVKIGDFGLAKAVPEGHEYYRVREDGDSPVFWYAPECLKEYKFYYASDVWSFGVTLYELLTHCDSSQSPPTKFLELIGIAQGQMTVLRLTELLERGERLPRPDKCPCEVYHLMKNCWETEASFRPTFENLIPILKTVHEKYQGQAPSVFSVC
T1 sequence (O60674 whole entry V617F): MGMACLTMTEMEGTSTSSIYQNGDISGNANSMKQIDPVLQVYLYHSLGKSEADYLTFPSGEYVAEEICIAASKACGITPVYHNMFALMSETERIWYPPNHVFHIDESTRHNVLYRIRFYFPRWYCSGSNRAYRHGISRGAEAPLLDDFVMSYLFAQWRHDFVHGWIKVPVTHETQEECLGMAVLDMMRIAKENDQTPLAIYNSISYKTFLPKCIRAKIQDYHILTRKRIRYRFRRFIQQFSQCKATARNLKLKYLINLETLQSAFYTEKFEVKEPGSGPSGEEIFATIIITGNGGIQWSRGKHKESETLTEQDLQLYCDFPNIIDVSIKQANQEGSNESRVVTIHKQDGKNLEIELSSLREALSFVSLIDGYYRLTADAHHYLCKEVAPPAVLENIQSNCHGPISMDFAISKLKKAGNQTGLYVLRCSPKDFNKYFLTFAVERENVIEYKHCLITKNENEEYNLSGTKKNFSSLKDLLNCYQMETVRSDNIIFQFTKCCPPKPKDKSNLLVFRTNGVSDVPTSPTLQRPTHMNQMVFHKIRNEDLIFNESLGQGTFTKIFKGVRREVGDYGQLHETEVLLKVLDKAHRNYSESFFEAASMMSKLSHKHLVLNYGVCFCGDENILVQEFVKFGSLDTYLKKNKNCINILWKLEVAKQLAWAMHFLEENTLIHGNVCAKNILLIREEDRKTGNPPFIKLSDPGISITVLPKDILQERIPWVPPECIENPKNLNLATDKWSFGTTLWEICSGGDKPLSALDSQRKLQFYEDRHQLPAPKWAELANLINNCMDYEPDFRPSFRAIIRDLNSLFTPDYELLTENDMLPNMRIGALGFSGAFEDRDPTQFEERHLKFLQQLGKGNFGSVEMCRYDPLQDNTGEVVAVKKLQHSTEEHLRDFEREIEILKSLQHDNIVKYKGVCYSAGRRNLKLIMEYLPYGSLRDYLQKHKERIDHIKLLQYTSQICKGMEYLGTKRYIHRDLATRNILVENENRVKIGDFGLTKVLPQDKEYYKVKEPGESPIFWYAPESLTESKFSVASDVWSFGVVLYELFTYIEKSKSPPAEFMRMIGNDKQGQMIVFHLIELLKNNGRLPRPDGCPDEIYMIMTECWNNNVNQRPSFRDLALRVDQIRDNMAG
T3 sequence (P23458 whole entry): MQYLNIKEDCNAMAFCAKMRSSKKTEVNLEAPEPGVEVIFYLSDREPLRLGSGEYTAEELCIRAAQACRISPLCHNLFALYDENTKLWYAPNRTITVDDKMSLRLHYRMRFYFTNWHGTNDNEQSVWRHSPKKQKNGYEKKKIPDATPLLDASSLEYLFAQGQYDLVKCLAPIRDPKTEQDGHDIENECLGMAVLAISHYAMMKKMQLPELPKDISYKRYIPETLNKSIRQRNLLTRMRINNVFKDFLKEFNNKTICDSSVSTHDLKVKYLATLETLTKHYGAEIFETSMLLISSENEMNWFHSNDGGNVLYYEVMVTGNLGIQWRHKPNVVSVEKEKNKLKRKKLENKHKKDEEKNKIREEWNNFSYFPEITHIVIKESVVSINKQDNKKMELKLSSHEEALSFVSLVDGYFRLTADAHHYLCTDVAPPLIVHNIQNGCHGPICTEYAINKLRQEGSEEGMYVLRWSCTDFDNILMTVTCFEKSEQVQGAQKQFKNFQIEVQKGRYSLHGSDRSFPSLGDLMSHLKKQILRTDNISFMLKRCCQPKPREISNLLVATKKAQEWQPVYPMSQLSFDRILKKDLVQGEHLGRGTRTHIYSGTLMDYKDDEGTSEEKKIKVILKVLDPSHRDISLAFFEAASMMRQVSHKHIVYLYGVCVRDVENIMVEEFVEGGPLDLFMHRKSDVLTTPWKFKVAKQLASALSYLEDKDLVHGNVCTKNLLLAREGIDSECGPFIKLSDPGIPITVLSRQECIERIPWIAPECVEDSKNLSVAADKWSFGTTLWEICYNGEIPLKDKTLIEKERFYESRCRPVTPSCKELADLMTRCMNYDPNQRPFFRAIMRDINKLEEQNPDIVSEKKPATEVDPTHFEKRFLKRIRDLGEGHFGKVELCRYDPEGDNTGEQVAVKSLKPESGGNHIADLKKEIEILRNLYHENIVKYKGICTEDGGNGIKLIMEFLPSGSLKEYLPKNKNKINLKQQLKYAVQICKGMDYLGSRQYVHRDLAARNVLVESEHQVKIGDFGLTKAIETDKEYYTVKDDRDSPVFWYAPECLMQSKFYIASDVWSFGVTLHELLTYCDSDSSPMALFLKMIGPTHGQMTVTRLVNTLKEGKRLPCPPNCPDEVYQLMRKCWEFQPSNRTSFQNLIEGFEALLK
T4 sequence (O60674 whole entry): as the sequence (O60674 whole entry V617F) above, with F617V counted along it

Cc1cnc(Nc2cnn(C3CC3)c2)nc1-c1ccc(OCC(C)(C)C#N)cc1 [Example 1, 3-(4-(2-((1-cyclopropyl-1H-pyrazol-4-yl)amino)-5-methylpyrimidin-4-yl)phenoxy)-2,2-dimethylpropanenitrile]
IC50 [1, 5]: 3.18 nM
IC50 [2, 6]: 12 nM
IC50 [3, 7]: 4.8 nM
IC50 [4, 8]: 0.27 nM

COCCn1cc(Nc2ncc(C)c(-c3ccc(OCC4(C#N)CC4)c(F)c3)n2)cn1 [Example 21, 1-((2-fluoro-4-(2-((1-(2-methoxyethyl)-1H-pyrazol-4-yl)amino)-5-methylpyrimidin-4-yl)phenoxy)methyl)cyclopropane-carbonitrile]
IC50 [1, 5]: < 1.25 nM
IC50 [2, 6]: < 1.25 nM
IC50 [3, 7]: 7.31 nM
IC50 [4, 8]: < 0.25 nM

Cc1cnc(Nc2cnn(C3CC3)c2)nc1-c1ccc(N(C)CC2(C#N)CC2)c(F)c1 [Example 33, 1-(((4-(2-((1-cyclopropyl-1H-pyrazol-4-yl)amino)-5-methylpyrimidin-4-yl)-2-fluorophenyl)(methyl)amino)methyl) cyclopropanecarbonitrile]
IC50 [1, 5]: 6.16 nM
IC50 [2, 6]: 30 nM
IC50 [3, 7]: 10.8 nM
IC50 [4, 8]: < 0.25 nM

CCOc1ccc(-c2nc(Nc3cnn(C)c3)ncc2C)cc1F [Example 46, 4-(4-ethoxy-3-fluorophenyl)-5-methyl-N-(1-methyl-1H-pyrazol-4-yl)pyrimidin-2-amine, reference compound]
IC50 ([1]; Table 3B, literature compounds, read-out: J2V617F (2.5 nM) (1 mM ATP)): 86.3 nM
IC50 ([2]; Table 3B, literature compounds, read-out: TYK2 (2.5 nM) (1 mM ATP)): 74.9 nM
IC50 ([3]; Table 3B, literature compounds, read-out: JAK1 (5 nM) (1 mM ATP)): 40.6 nM
IC50 ([4]; Table 3B, literature compounds, read-out: JAK2 (0.25 nM) (1 mM ATP)): 60.6 nM

COCCn1cc(Nc2ncc(C)c(-c3ccc(OCC(C)(C)C#N)c(F)c3)n2)cn1 [Example 19, 3-(2-fluoro-4-(2-((1-(2-methoxyethyl)-1H-pyrazol-4-yl)amino)-5-methylpyrimidin-4-yl)phenoxy)-2,2-dimethylpropanenitrile]
IC50 [1, 5]: < 1.25 nM
IC50 [2, 6]: < 1.25 nM
IC50 [3, 7]: < 2.5 nM
IC50 [4, 8]: < 0.25 nM
